# Test results from the supplement of paper PMC10307832.
# Key:
# Test in all cases: relative viability (nuclei count vs DMSO), 5 days (fraction); higher = more cells survive
# MLN4924 + Vorinostat = compound: NS(=O)(=O)OC[C@@H]1C[C@@H](n2ccc3c(N[C@H]4CCc5ccccc54)ncnc32)C[C@@H]1O [MLN4924] + O=C(CCCCCCC(=O)Nc1ccccc1)NO [Vorinostat] (partner 1 µM)
# Method in brief: (§1)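 Five library-drug doses in √10 steps were combined with a fixed anchor-drug dose, or a single drug was given alone, by pin tool to lung cancer cell lines in 1536-well plates the day after seeding. Nuclei were stained and counted after 5 days. Relative viability is the nuclei count in treated wells over that in vehicle wells, taken as the median of duplicate plates.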
# GSK126 + Vorinostat = compound: CC[C@H](C)N1C=C(C2=C(C=C(C=C21)C3=CN=C(C=C3)N4CCNCC4)C(=O)NCC5=C(C=C(NC5=O)C)C)C [GSK126] + O=C(CCCCCCC(=O)Nc1ccccc1)NO [Vorinostat] (partner 1 µM)
# Method in brief: as §1
# MLN4924 + Pictilisib = compound: NS(=O)(=O)OC[C@@H]1C[C@@H](n2ccc3c(N[C@H]4CCc5ccccc54)ncnc32)C[C@@H]1O [MLN4924] + CS(=O)(=O)N1CCN(Cc2cc3nc(-c4cccc5[nH]ncc45)nc(N4CCOCC4)c3s2)CC1 [Pictilisib] (partner 1 µM)
# Method in brief: as §1
# Carboplatin + Luminespib = compound: C1CC(C1)(C(=O)O)C(=O)O.[NH2-].[NH2-].[Pt+2] [Carboplatin] + CCNC(=O)c1noc(-c2cc(C(C)C)c(O)cc2O)c1-c1ccc(CN2CCOCC2)cc1 [Luminespib] (partner 0.01 µM)
# Method in brief: as §1
Cell Line,relative viability (MLN4924 + Vorinostat; first compound 0.04 µM),relative viability (MLN4924 + Vorinostat; first compound 0.1265 µM),relative viability (MLN4924 + Vorinostat; first compound 0.4 µM),relative viability (MLN4924 + Vorinostat; first compound 1.265 µM),relative viability (MLN4924 + Vorinostat; first compound 4 µM),relative viability (GSK126 + Vorinostat; first compound 0.08 µM),relative viability (GSK126 + Vorinostat; first compound 0.253 µM),relative viability (GSK126 + Vorinostat; first compound 0.8 µM),relative viability (GSK126 + Vorinostat; first compound 2.53 µM),relative viability (GSK126 + Vorinostat; first compound 8 µM),relative viability (MLN4924 + Pictilisib; first compound 0.04 µM),relative viability (MLN4924 + Pictilisib; first compound 0.1265 µM),relative viability (MLN4924 + Pictilisib; first compound 0.4 µM),relative viability (MLN4924 + Pictilisib; first compound 1.265 µM),relative viability (MLN4924 + Pictilisib; first compound 4 µM),relative viability (Carboplatin + Luminespib; first compound 0.08 µM),relative viability (Carboplatin + Luminespib; first compound 0.253 µM),relative viability (Carboplatin + Luminespib; first compound 0.8 µM),relative viability (Carboplatin + Luminespib; first compound 2.53 µM),relative viability (Carboplatin + Luminespib; first compound 8 µM)
HCC-78,0.442,0.309,0.5,0.245,0.225,0.429,0.402,0.413,0.437,0.452,0.272,0.187,0.14,0.138,0.139,–,–,–,–,–
HCC-366,0.327,0.348,0.322,0.0422,0.0392,0.389,0.354,0.29,0.342,0.385,0.232,0.496,0.326,0.102,0.0407,–,–,–,–,–
HCC-827,0.805,0.716,0.636,0.242,0.215,0.893,0.929,0.798,0.925,0.919,1.12,0.641,0.808,0.382,0.311,0.653,0.675,0.441,0.452,0.3
HOP-62,0.395,0.378,0.116,0.0547,0.0779,0.725,0.542,0.633,0.646,0.665,0.521,0.428,0.0949,0.0537,0.103,0.957,0.876,0.819,0.799,0.719
IA-LM,0.653,0.194,0.17,0.0544,0.0516,1.06,0.797,0.941,0.929,0.853,0.342,0.145,0.0958,0.0574,0.0645,–,–,–,–,–
LC-2-ad,0.612,0.63,0.508,0.214,0.202,0.767,0.667,0.704,0.712,0.63,0.122,0.427,0.39,0.143,0.116,1.02,1.01,0.993,0.911,0.651
LCLC-97TM1,0.742,0.503,0.0752,0.0454,0.0589,0.771,0.8,0.717,0.812,0.691,0.159,0.224,0.132,0.129,0.104,0.726,0.667,0.65,0.732,0.722
LCLC-103H,0.763,0.771,0.372,0.252,0.282,0.888,0.906,0.77,0.786,0.761,0.757,0.697,0.788,0.238,0.233,0.918,1.09,0.859,0.908,0.905
LK-2,0.271,0.277,0.227,0.509,0.198,0.239,0.233,0.411,0.279,0.298,0.511,0.503,0.566,0.254,0.262,0.177,0.198,0.179,0.16,0.178
LOU-NH91,0.581,0.938,0.661,0.475,0.506,0.909,0.878,0.781,0.957,0.905,0.53,0.574,0.515,0.393,0.434,0.393,0.337,0.329,0.306,0.34
LU99A,0.514,0.381,0.3,0.119,0.106,0.506,0.484,0.443,0.404,0.561,0.334,0.299,0.226,0.153,0.137,0.29,0.319,0.247,0.188,0.211
LXF-289,0.654,0.506,0.462,0.143,0.115,0.8,0.832,0.718,0.787,0.707,0.683,0.688,0.374,0.134,0.0975,0.79,0.787,0.601,0.677,0.568
NCI-H522,0.704,0.726,0.567,0.344,0.378,0.888,0.887,0.954,1.04,0.92,–,–,–,–,–,1.05,1.38,0.851,0.904,0.835
NCI-H1299,–,–,–,–,–,–,–,–,–,–,0.378,0.398,0.153,0.0571,0.0769,–,–,–,–,–
NCI-H1563,–,–,–,–,–,–,–,–,–,–,0.802,0.646,0.581,0.535,0.586,0.526,0.506,0.499,0.482,0.565
NCI-H1623,–,–,–,–,–,–,–,–,–,–,–,–,–,–,–,0.548,0.469,0.457,0.507,0.433
NCI-H1648,0.249,0.296,0.276,0.224,0.309,0.496,0.401,0.467,0.5,0.548,–,–,–,–,–,–,–,–,–,–
NCI-H1703,–,–,–,–,–,–,–,–,–,–,0.181,0.162,0.165,0.155,0.174,–,–,–,–,–
NCI-H1792,–,–,–,–,–,–,–,–,–,–,0.375,0.387,0.34,0.147,0.122,0.492,0.36,0.44,0.415,0.267
NCI-H2342,0.809,0.814,0.837,0.873,0.625,0.82,0.753,0.74,0.725,0.857,–,–,–,–,–,0.898,0.789,0.68,0.788,0.608
SW 900,–,0.414,0.182,0.175,0.208,0.421,0.546,0.432,0.39,0.566,–,–,–,–,–,0.16,0.168,0.162,0.161,0.15
